Test results as given in patent US11917908B2, “Organic compound, optical device, light-emitting device, light-emitting apparatus, electronic device, and lighting device” (SEMICONDUCTOR ENERGY LABORATORY CO., LTD., priority 2019, dated 2024).

How the values were obtained:
Assay type in all cases: physicochemical
[1] = Thermogravimetry-differential thermal analysis (TG-DTA), weight reduction temperature; conditions: for Temperature at TG −5% (weight reduction temperature): weight reduced from initial weight by 5%; for Temperature at TG −5% (weight reduction temperature) / Temperature at TG −10% (weight reduction temperature) / Temperature at TG −50% (weight reduction temperature): 10 Pa, temperature rising rate 10° C./min; for Temperature at TG −10% (weight reduction temperature): weight reduced from initial weight by 10%; for Temperature at TG −50% (weight reduction temperature): weight reduced from initial weight by 50%
Procedure: The thermogravimetry-differential thermal analysis (TG-DTA) of these four substances was performed. The measurement was performed with a high vacuum differential type differential thermal balance (TG-DTA2410SA, produced by Bruker AXS K.K.). […] The temperatures of the time when the weight of the organic compounds is reduced from the initial weight by 5%, 10%, and 50% (weight reduction temperature) are shown in Table 3.

[2] = Solubility in a solvent (toluene, 25° C.); conditions: for solubility: organic solvent or mixture, 1M
Procedure: The measurement results on the solubility of 3,10PCA2Nbf(IV)-02 and 3,10mmtBuPCA2Nbf(IV)-02 in a solvent are shown below. The solubility in the table are that in toluene at 25° C. Consequently, the organic compound of one embodiment of the present invention has improved solubility in a solvent owing to the bonding of the secondary or tertiary alkyl groups having 3 to 6 carbon atoms and having a branched carbon atom which is bonded to the phenyl group to the two meta-positions of the phenyl group bonded to the 9-position of the carbazolyl group. Thus, the organic compound of one embodiment of the present invention can be easily produced owing to the easy purification.

[3] = Behaviour at sublimation purification; conditions: at the time of sublimation purification

Sublimability (from weight reduction temperatures) ([1]; comparison of the four substances of Table 3)	Temperature at TG −5% (weight reduction temperature) [1] [°C]	Temperature at TG −10% (weight reduction temperature) [1] [°C]	Temperature at TG −50% (weight reduction temperature) [1] [°C]	Solubility 0.01M ([2]; 0.01M)	Solubility 0.1M ([2]; 0.1M)	solubility [2] [mM]	SMILES	Stability at sublimation purification [3]
highest sublimability	378	394	423	∘	∘	< 1000	CC(C)(C)c1cc(-n2c3ccccc3c3ccc(N(c4ccccc4)c4ccc5c(c4)oc4cc6cc7c(cc6cc45)oc4cc(N(c5ccccc5)c5ccc6c8ccccc8n(-c8cc(C(C)(C)C)cc(C(C)(C)C)c8)c6c5)ccc47)cc32)cc(C(C)(C)C)c1 [3,10mmtBuPCA2Nbf(IV)-02, N,N-bis[9-(3,5-di-tert-butylphenyl)-9H-carbazol-2-yl]-N,N-diphenyl-naphtho[2,3-b;6,7-b′]bisbenzofuran-3,10-diamine]	–
–	384	407	442	–	–	–	CCCCCCc1cc(CCCCCC)cc(-n2c3ccccc3c3ccc(N(c4ccccc4)c4ccc5c(c4)oc4cc6cc7c(cc6cc45)oc4cc(N(c5ccccc5)c5ccc6c8ccccc8n(-c8cc(CCCCCC)cc(CCCCCC)c8)c6c5)ccc47)cc32)c1 [3,10mmHexPCA2Nbf(IV)-02, N,N-bis[9-(3,5-dihexylphenyl)-9H-carbazol-2-yl]-N,N-diphenyl-naphtho[2,3-b;6,7-b′]bisbenzofuran-3,10-diamine]	decomposed at the time of sublimation purification
–	398	411	442	–	–	< 10	c1ccc(N(c2ccc3c(c2)oc2cc4cc5c(cc4cc23)oc2cc(N(c3ccccc3)c3ccc4c6ccccc6n(-c6ccccc6)c4c3)ccc25)c2ccc3c4ccccc4n(-c4ccccc4)c3c2)cc1 [3,10PCA2Nbf(IV)-02, 3,10-bis[N-(9-phenyl-9H-carbazol-2-yl)-N-phenylamino]naphtho[2,3-b;6,7-b′]bisbenzofuran]	–
–	380	402	436	–	–	–	CCc1cc(CC)cc(-n2c3ccccc3c3ccc(N(c4ccccc4)c4ccc5c(c4)oc4cc6cc7c(cc6cc45)oc4cc(N(c5ccccc5)c5ccc6c8ccccc8n(-c8cc(CC)cc(CC)c8)c6c5)ccc47)cc32)c1 [3,10mmEtPCA2Nbf(IV)-02, N,N-bis[9-(3,5-diethylphenyl)-9H-carbazol-2-yl]-N,N-diphenyl-naphtho[2,3-b;6,7-b′]bisbenzofuran-3,10-diamine]	–
